Laboratory results from US4336389A, “2-Substituted-4-aryl-5-thiazolecarboxylic acids and their derivatives as safening agents” (Monsanto Company, priority 1978, dated 1982).

What was measured:
Format in all cases: in vivo
[1] = test system: Barnyard Grass; assay: Inhibition of barnyard grass, safening agent and butachlor applied to soil surface, flooded pots (Example 18, Table IV); details: ~21 days, mean of two replicates
Experimental: (§1) 5.08 cm. of a good grade of top soil is placed in a 7.62 cm. deep plastic pot. A predetermined number of barnyard grass seeds are applied to the soil surface. A measured quantity of the safening agent and butachlor dispersed or dissolved in a suitable carrier is applied to the soil surface. Pre-soaked rice is seeded into the pots that were previously flooded with water. The water level is lowered below the soil surface for one week. The pots are flooded just above the soil surface for the duration of the test. The plants are observed at the end of approximately 21 days and the results in terms of percent inhibition recorded. For each test, pots are prepared containing soil treated only with butachlor. For each test, pots are prepared containing soil treated only with the safening agent. Pots are also prepared with untreated soil.

[2] = test system: rice; assay: Safening effect against butachlor injury to rice, safening agent and herbicide incorporated in soil (Example 15, Table I); design: key: herbicide-alone + safener-alone effect (max 100) minus combined effect; details: safening agent 8.96 kg/h; butachlor 6.72 kg/h; ~21 days
Experimental: (§2) A good grade of top soil is placed in a container and compacted to a depth of approximately 1.27 cm. from the top of said container. A predetermined number of rice seeds to be tested are placed on top of the soil. A quantity of soil sufficient to substantially fill the container is measured and placed in a second container. A measured quantity of the safening agent dispersed or dissolved in a suitable carrier is applied to the soil in the second container. A measured quantity of butachlor dispersed or dissolved in a suitable carrier is then sprayed on the soil already treated with the safening agent. The soil containing the safening agent and herbicide is thoroughly mixed. This mixing is sometimes referred to as incorporation of the herbicide and safening agent into the soil. The mixing or incorporation provides a substantially uniform distribution of the safening agent and herbicide throughout the soil. The seeds are covered with the soil containing the safening agent and herbicide and the pans are leveled. The pans are then placed on a sand bench in the greenhouse and watered from below as needed. The plants are observed at the end of approximately 21 days and the results in terms of percent inhibition of each seed lot are recorded. For each test series a pan of plants is also prepared containing no herbicide and no safening agent as a control. Additionally, for each test, a pan of plants is prepared with soil covering the seed containing no herbicide and only the measured amount of safening agent being incorporated into the soil covering the seeds to ascertain any herbicidal effect of the safening agent alone. For each series of tests the herbicidal effect of the herbicide is observed from pans of plants treated with the same quantity of herbicide alone. The "safening effect" is determined by adding the hericidal effect of the herbicide when applied alone to the herbicidal effect of the safening agent when applied alone (in no instance, however, will this sum be greater than 100) and substracting from that the herbicidal effect obtained when the herbicide and safening agent are incorporated into the soil as discussed above.
Table I summarizes the results obtained when the compounds of the invention were tested in accordance with the procedure of Example 15.

[3] = test system: rice; assay: Safening effect against butachlor injury to pre-soaked rice, soil surface application, flooded pots (Example 16, Table II); design: key: herbicide injury alone + safener injury alone (max 100) minus combined injury; details: safening agent 0.56 kg/h, ~21 days, mean of two replicates
Experimental: as §2
A good grade of top soil is placed in a plastic pot. A measured quantity of the safening agent dispersed or dissolved in a suitable carrier is sprayed on the soil surface. A measured quantity of butachlor herbicide dissolved in a solvent is sprayed on the soil surface. Presoaked rice is seeded into the pots that were previously flooded with water and the water level lowered below the soil surface for one week. The pots are flooded at least up to the soil surface for the duration of the test. The plants are observed at the end of approximately 21 days and the results in terms of the percent inhibition of rice is recorded. As in Example 15, for each test pots are prepared containing soil treated only with butachlor. For each test, pots are also prepared containing soil treated only with the safening agent. Pots are also prepared in which the soil is not treated with either the herbicide or the safening agent. The safening effect is determined in accordance with Example 15.
Table II summarizes the results obtained when the compounds of the invention were tested in accordance with the procedure of Example 16.

[4] = test system: rice; assay: Inhibition of rice by butachlor and safening agent sprayed on soil surface, flooded pots (Example 17, Table III); details: ~21 days, mean of two replicates
Experimental: as §1, with “agent” for “agent and butachlor”, “is sprayed on the soil surface. A measured quantity of butachlor herbicide dissolved in a solvent is sprayed on” for “is applied to”, “one week to allow barnyard grass to emerge.” for “one week.”, “prepared containing” for “prepared with”

[5] = test system: Barnyard Grass; assay: Inhibition of barnyard grass by butachlor and safening agent sprayed on soil surface, flooded pots (Example 17, Table III); details: ~21 days, mean of two replicates
Experimental: as §1, with “agent” for “agent and butachlor”, “is sprayed on the soil surface. A measured quantity of butachlor herbicide dissolved in a solvent is sprayed on” for “is applied to”, “one week to allow barnyard grass to emerge.” for “one week.”, “prepared containing” for “prepared with”

[6] = test system: rice; assay: Inhibition of rice, safening agent and butachlor applied to soil surface, flooded pots (Example 18, Table IV); details: ~21 days, mean of two replicates
Experimental: as §1

[7] = test system: Foxtail; assay: Percent inhibition of foxtail, mixture incorporated in soil cover layer (Example 19, Table V); details: ~21 days
From the text: (§3) 5.08 cm. of a good grade of top soil is placed in a 7.62 cm. deep plastic pot. A predetermined number of weed seeds and rice seeds are applied to the soil surface. Butachlor and ethyl 2-chloro-4-phenyl-5-thiazolecarboxylate are applied to a soil cover layer as a mixture and incorporated by shaking the treated soil cover layer in a plastic bag. The cover layers were then placed on the pre-seeded pots. The plants are observed at the end of approximately 21 days and the results in terms of percent inhibition recorded. For each test, pots are prepared containing soil treated only with butachlor. For each test, pots are prepared containing soil treated only with the safening agent. Pots are also prepared with untreated soil.

[8] = test system: Crabgrass; assay: Percent inhibition of crabgrass, mixture incorporated in soil cover layer (Example 19, Table V); details: ~21 days
From the text: as §3

[9] = test system: Panicum; assay: Percent inhibition of panicum, mixture incorporated in soil cover layer (Example 19, Table V); details: ~21 days
From the text: as §3

[10] = test system: Barnyard Grass; assay: Percent inhibition of barnyard grass, mixture incorporated in soil cover layer (Example 19, Table V); details: ~21 days
From the text: as §3

[11] = test system: rice; assay: Percent inhibition of rice, mixture incorporated in soil cover layer (Example 19, Table V); details: ~21 days
From the text: as §3

[12] = safening agent 0.07 kg/h + butachlor 0.07 kg/h
[13] = safening agent 0.07 kg/h + butachlor 0.28 kg/h
[14] = safening agent 0.07 kg/h + butachlor 1.12 kg/h
[15] = safening agent 0.28 kg/h + butachlor 0.07 kg/h
[16] = safening agent 0.28 kg/h + butachlor 0.28 kg/h
[17] = safening agent 0.28 kg/h + butachlor 1.12 kg/h
[18] = safening agent 1.12 kg/h + butachlor 0.07 kg/h
[19] = safening agent 1.12 kg/h + butachlor 0.28 kg/h
[20] = safening agent 1.12 kg/h + butachlor 1.12 kg/h

CCOC(=O)c1sc(Cl)nc1-c1ccc(Cl)cc1 [Example 4, Ethyl 2-Chloro-4-p-Chlorophenyl-5-Thiazolecarboxylate]
30: Safening Effect ([3]; butachlor 0.07 kg/h)
32: Safening Effect ([3]; butachlor 1.12 kg/h)
88%: % Inhibition, Rice [6, 14] | % Inhibition, Rice [6, 20]
70: Safening Effect ([3]; butachlor 0.28 kg/h)
30%: % Inhibition, Rice [6, 16] | % Inhibition, Rice [6, 19]
100%: % Inhibition, Barnyard Grass [1, 13] | % Inhibition, Barnyard Grass [1, 14] | % Inhibition, Barnyard Grass [1, 16] | % Inhibition, Barnyard Grass [1, 17] | % Inhibition, Barnyard Grass [1, 19] | % Inhibition, Barnyard Grass [1, 20] | Inhibition, Barnyard Grass [5, 13] | Inhibition, Barnyard Grass [5, 14] | Inhibition, Barnyard Grass [5, 17] | Inhibition, Barnyard Grass [5, 20]
78%: Inhibition, Rice [4, 14]
85%: % Inhibition, Barnyard Grass [1, 15] | % Inhibition, Barnyard Grass [1, 18]
5%: % Inhibition, Rice [6, 12]
99%: Inhibition, Barnyard Grass [5, 12] | Inhibition, Barnyard Grass [5, 15] | Inhibition, Barnyard Grass [5, 16] | Inhibition, Barnyard Grass [5, 18] | Inhibition, Barnyard Grass [5, 19]
28%: Inhibition, Rice [4, 20]
40%: Inhibition, Rice [4, 17] | % Inhibition, Rice [6, 17]
0%: % Inhibition, Barnyard Grass ([1]; safening agent alone 0.07 kg/h) | % Inhibition, Barnyard Grass ([1]; safening agent alone 0.28 kg/h) | % Inhibition, Barnyard Grass ([1]; safening agent alone 1.12 kg/h) | Inhibition, Rice [4, 12] | Inhibition, Rice [4, 13] | Inhibition, Rice [4, 15] | Inhibition, Rice [4, 16] | Inhibition, Rice [4, 18] | Inhibition, Rice [4, 19] | Inhibition, Rice ([4]; safening agent alone 0.07 kg/h) | Inhibition, Rice ([4]; safening agent alone 0.28 kg/h) | Inhibition, Rice ([4]; safening agent alone 1.12 kg/h) | Inhibition, Barnyard Grass ([5]; safening agent alone 0.07 kg/h) | Inhibition, Barnyard Grass ([5]; safening agent alone 0.28 kg/h) | Inhibition, Barnyard Grass ([5]; safening agent alone 1.12 kg/h) | % Inhibition, Rice [6, 15] | % Inhibition, Rice [6, 18] | % Inhibition, Rice ([6]; safening agent alone 0.07 kg/h) | % Inhibition, Rice ([6]; safening agent alone 0.28 kg/h) | % Inhibition, Rice ([6]; safening agent alone 1.12 kg/h)
90%: % Inhibition, Barnyard Grass [1, 12]
63%: % Inhibition, Rice [6, 13]
85: Safening Effect [2]

CCCCOCN(C(=O)CCl)c1c(CC)cccc1CC [butachlor, 2-chloro-2',6'-diethyl-N-(butoxymethyl)acetanilide, reference compound]
31%: Inhibition, Rice ([4]; butachlor alone 0.07 kg/h)
64%: % Inhibition, Rice ([6]; butachlor alone 0.07 kg/h)
100%: % Inhibition, Barnyard Grass ([1]; butachlor alone 0.07 kg/h) | % Inhibition, Barnyard Grass ([1]; butachlor alone 0.28 kg/h) | % Inhibition, Barnyard Grass ([1]; butachlor alone 1.12 kg/h) | Percent Inhibition, Foxtail ([7]; butachlor alone 2.24 kg/h) | Percent Inhibition, Foxtail ([7]; butachlor alone 4.48 kg/h) | Percent Inhibition, Foxtail ([7]; butachlor alone 8.96 kg/h) | Percent Inhibition, Crabgrass ([8]; butachlor alone 2.24 kg/h) | Percent Inhibition, Crabgrass ([8]; butachlor alone 4.48 kg/h) | Percent Inhibition, Crabgrass ([8]; butachlor alone 8.96 kg/h) | Percent Inhibition, Panicum ([9]; butachlor alone 4.48 kg/h) | Percent Inhibition, Panicum ([9]; butachlor alone 8.96 kg/h) | Percent Inhibition, Barnyard Grass ([10]; butachlor alone 2.24 kg/h) | Percent Inhibition, Barnyard Grass ([10]; butachlor alone 4.48 kg/h) | Percent Inhibition, Barnyard Grass ([10]; butachlor alone 8.96 kg/h) | Inhibition, Barnyard Grass ([5]; butachlor alone 0.28 kg/h) | Inhibition, Barnyard Grass ([5]; butachlor alone 1.12 kg/h) | % Inhibition, Rice ([6]; butachlor alone 1.12 kg/h)
78%: Percent Inhibition, Rice ([11]; butachlor alone 4.48 kg/h) | % Inhibition, Rice ([6]; butachlor alone 0.28 kg/h)
99%: Percent Inhibition, Panicum ([9]; butachlor alone 2.24 kg/h) | Inhibition, Barnyard Grass ([5]; butachlor alone 0.07 kg/h)
98%: Inhibition, Rice ([4]; butachlor alone 1.12 kg/h)
50%: Percent Inhibition, Rice ([11]; butachlor alone 2.24 kg/h)
74%: Inhibition, Rice ([4]; butachlor alone 0.28 kg/h)
93%: Percent Inhibition, Rice ([11]; butachlor alone 8.96 kg/h)
